Reference: patent US9855277B2, “Use of 5H-dibenz/b,f/azepine-5-carboxamide derivatives for treating fibromyalgia” (BIAL—PORTELA & CA, S.A., priority 2009, dated 2018)

Columns and labels:
Mice (NMRI) = experiment: Formalin paw test; type: in vivo; conditions: 300 mg/kg p.o.
Protocol: The method, which detects analgesic activity, follows that described by Wheeler-Aceto et al (see […]-ACETO, H. & A., C. (1991), “Standardization of the rat paw formalin test for the evaluation of analgesics”, Psychopharmacology, 104, 35-44). Mice (NMRI) were given an intraplantar injection of 5% formalin (25 μl) into the posterior left paw. […] The time spent licking was counted for 15 minutes, beginning 15 minutes after injection of formalin. 10 mice were studied per group. The test was performed blind. ESL and carbamazepine (CBZ) were tested at the doses of 10, 30, 100 and 300 mg/kg p.o., and oxcarbazepine (OXC) and R-Lic were tested at the doses of 100 and 300 mg/kg p.o., administered 60 minutes before the test (i.e. 45 minutes before formalin), and compared with a vehicle control group in each experiment. Morphine (64 mg/kg p.o.), administered under the same experimental conditions, was used as reference substance.

[1] = system: patients with partial epilepsy; experiment: MADRS, open label extension of phase 3 study, Trial 1; type: in vivo, human
Protocol: (§1) During an open label extension of a phase 3 study with ESL, the effect on depressive symptoms in patients taking at least one other anti-epileptic drug was assessed using the Montgomery Åsberg Depression Rating Scale (MADRS) at the end of treatment (after one year or after early discontinuation) and results compared with those at baseline. Patients were treated with ESL dosages in the range of 400-1500 mg, the majority being treated once daily with 800 mg ESL.

[2] = system: patients with partial epilepsy; experiment: MADRS, open label extension of phase 3 study, Trial 2; type: in vivo, human
Protocol: as §1, with “During a further” for “During an”

[3] = Plasma bioanalysis in CCI mice after oral ESL; type: in vivo; conditions: oral ESL
[4] = system: dorsal horn neurones of CCI mice; experiment: Spontaneous activity of dorsal horn neurones in CCI mice (extracellular recording); type: in vivo; conditions: ESL 100 mg/kg i.p.; for spontaneous activity of dorsal horn neurones, firing rate: 5 preparations
Text: Adult male BL CB F1 mice, weighing 25-30 g at the time of surgery and 26-38 g at the time of electrophysiological experiments, were used. The baseline paw withdrawal threshold (PWT) was examined using a series of graduated von Frey hairs (see below) on 3 consecutive days before surgery and re-assessed on the 7th and on the 14th days after surgery, before electrophysiological recording. The animals were killed by an overdose of pentobarbitone on completion of the study. The chronic constriction injury (CCI) model was prepared following the standard protocols described previously (Bennett and Xie, 1988). Mice were anaesthetised and the lateral side of the left thigh was shaved and sterilized with 75% ethanol. A small incision of approximately 0.5 cm was made parallel to the femur. The muscle was carefully separated to expose the sciatic nerve. Three loose ligatures were placed on the sciatic nerve with 5-0 suture silk thread at approximately 1 mm intervals. The wound was closed in layers with suture silk 4-0 and the animals were placed in a recovery chamber with the temperature controlled and set at 30° C. A dose of amoxicillin (0.02 mL, 3 mg) was routinely injected i.p. after surgery to prevent infection. The animals were returned to their home cages after complete recovery of consciousness and freedom of movement. For the first 2 days after surgery, the animals were closely monitored at least twice daily and subsequently, at least once daily until compound testing. The baseline PWT was tested for 3 consecutive days before surgery and re-assessed on the 7th and 14th days after surgery to monitor the development of mechanical allodynia. Only those mice showing significant mechanical allodynia (PWT≦0.2 g) were selected for subsequent electrophysiological experiments. After behavioural validation, the mice were re-anaesthetised, body temperature was monitored and controlled within a physiological range via a thermo-blanket system, and the electrocardiogram (ECG) was routinely monitored through a pair of stainless steel needles inserted into the left fore-paw and right hind-paw. A laminectomy was carried out to expose the L2-L6 segments of the spinal cord. In some experiments, spinalisation at the C2-C3 level or section of the L4-L6 dorsal roots of the left side at a site near the root entry zone to the spinal cord, was performed. A protective pool was formed and filled with warm mineral oil to cover the spinal cord and the sectioned roots. Extracellular unitary recordings of spontaneous activity from the spinal dorsal horn neurones were achieved by using a carbon microelectrode driven by an electrode manipulator. The electrical signals were recorded through a CED micro-1401 interface to a PC for later off-line analysis. Recording from a dorsal horn neurone displaying spontaneous electrical discharge was undertaken for a period of at least 10 min for control and 40 min after either vehicle or ESL administration. The suspension was prepared with a vehicle containing 30% DMSO in 0.9% sodium chloride to a dose concentration of 50 mg/mL. The vehicle and ESL were injected intraperitoneally at a volume of 2 mL/kg through a needle connected with a 1 mL syringe placed prior to the experiment. Each animal received only one treatment of either vehicle or ESL (100 mg/kg). Spontaneous activity was counted as firing rate per minute. An average firing rate over 5 min periods, recorded consecutively immediately prior to vehicle injection or ESL was used as control (and standardized as 100%). The average firing rate over a 5 min period recorded 30-35 min after vehicle or ESL injection was used to quantify firing rate following treatment and compared with the control level. Due to the high level of variation in frequency of spontaneous ectopic discharge from preparation to preparation; all data were standardized relative to control. All data were expressed as mean±SEM. A paired Student's t-test (two-way) was used to compare different time points in the same group. […]

[5] = long-term open-label adjunctive therapy, partial epilepsy

Structure (SMILES): CC(=O)O[C@H]1Cc2ccccc2N(C(N)=O)c2ccccc21 [ESL, S-(−)-10-acetoxy-10,11-dihydro-5H-dibenz/b,f/azepine-5-carboxamide]
- licking in the formalin test at 300 mg/kg (Mice (NMRI)): abolished licking
- MADRS total score at end of treatment ([1]; ITT population (166 patients), baseline 10.5, ESL 400-1500 mg, mostly 800 mg once daily, one year or early discontinuation, p<0.05): 7.8
- depressive symptoms (MADRS), change from baseline [1, 5]: Statistically and clinically significant improvement from baseline
- MADRS apparent sadness, mean relative improvement ([2]; ITT population (264 patients)): 34%
- MADRS concentration difficulties, mean relative improvement ([2]; ITT population (264 patients)): 30%
- MADRS inability to feel, mean relative improvement ([2]; ITT population (264 patients)): 38%
- MADRS inner tension, mean relative improvement ([2]; ITT population (264 patients)): 31%
- MADRS lassitude, mean relative improvement ([2]; ITT population (264 patients)): 38%
- MADRS pessimistic thoughts, mean relative improvement ([2]; ITT population (264 patients)): 26%
- MADRS reduced appetite, mean relative improvement ([2]; ITT population (264 patients)): 57%
- MADRS reduced sleep, mean relative improvement ([2]; ITT population (264 patients)): 48%
- MADRS reported sadness, mean relative improvement ([2]; ITT population (264 patients)): 40%
- MADRS suicidal thoughts, mean relative improvement ([2]; ITT population (264 patients)): 56%
- MADRS apparent sadness, mean relative improvement ([2]; PP population (232 patients)): 38%
- MADRS concentration difficulties, mean relative improvement ([2]; PP population (232 patients)): 33%
- MADRS inability to feel, mean relative improvement ([2]; PP population (232 patients)): 35%
- MADRS inner tension, mean relative improvement ([2]; PP population (232 patients)): 34%
- MADRS lassitude, mean relative improvement ([2]; PP population (232 patients)): 39%
- MADRS pessimistic thoughts, mean relative improvement ([2]; PP population (232 patients)): 31%
- MADRS reduced appetite, mean relative improvement ([2]; PP population (232 patients)): 62%
- MADRS reduced sleep, mean relative improvement ([2]; PP population (232 patients)): 53%
- MADRS reported sadness, mean relative improvement ([2]; PP population (232 patients)): 41%
- MADRS suicidal thoughts, mean relative improvement ([2]; PP population (232 patients)): 60%
- depressive mood as assessed by MADRS, change from baseline [2, 5]: statistically significant improvement from baseline
- main metabolite in plasma [3]: mainly to eslicarbazepine
- time to complete metabolism after administration (plasma) [3]: ≤ 1 h
- spontaneous activity, % of control ([4]; dorsal root (L4-L6) sectioned CCI mice, 30-35 min, P<0.01 vs vehicle): 29.5±13.3 % of control
- spontaneous activity of dorsal horn neurones, average firing rate ([4]; dorsal root (L4-L6) sectioned CCI mice, 30-35 min, control 378.1±85.4, 8 preparations): 97.5±39.0 imps/min
- spontaneous activity, % of control level ([4]; intact CCI mice, 30-35 min, P<0.01 vs control): 26.3±10.1 % of control
- spontaneous activity of dorsal horn neurones, firing rate ([4]; intact CCI mice, 30-35 min after injection, control 780.7±462.5): 113.6±43.9 imps/min
- spontaneous activity, % of control levels ([4]; spinalised (C2-C3) CCI mice, 30-35 min, P<0.001): 14.8±6.8 % of control
- spontaneous activity of dorsal horn neurones, firing rate ([4]; spinalised (C2-C3) CCI mice, 30-35 min, control 504.5±286.1, P>0.05): 31.2±12.7 imps/min
